What all share (format): toxicity, cell-based
One data set relates to Fibroblast. In words: Incucyte cell viability with human fibroblast. Particulars: 24 h, 10 µM, compound concentration 10 uM.
A further data set relates to HEK-293T. In words: Incucyte cell viability with HEK293T. The note with it: human, 24 h, 10 µM, compound concentration 10 uM.
The subject of a further data set is U2OS. In words: Incucyte cell viability with U2OS. Particulars: human, 24 h, 10 µM, compound concentration 10 uM.
Further: unitless GR value; below 1 slowed growth and below 0 cell loss.

Take `NC(=O)c1ccc(Oc2ccc(C(N)=O)cc2)cc1`: the “Growth Rate” value in the data set with Fibroblast (replicate number 1), with HEK-293T (replicate number 1) and in the data set on U2OS (replicate number 1) was 1 throughout.
Consider `O=C(CCl)Nc1ccc(S(=O)(=O)c2ccc(NC(=O)CCl)cc2)cc1`, for which the “Growth Rate” value is reported as -0.61 in the data set on Fibroblast (replicate number 1); -0.63 in the data set on Fibroblast (replicate number 2); -0.4 in the data set on HEK-293T (replicate number 1); -0.18 in the data set with HEK-293T (replicate number 2); -0.42 in the data set with U2OS (replicate number 1); 0.05 in the data set with U2OS (replicate number 2).
Take `COc1cc2c(NC3CCN(CC4CCCCC4)CC3)nc(N3CCCN(C(C)C)CC3)nc2cc1OCCCN1CCCCC1`: the “Growth Rate” value in the data set on Fibroblast (replicate number 1) is -0.44; in the data set with Fibroblast (replicate number 2), -0.13; with HEK-293T (replicate number 1) it was -0.58; in the data set on HEK-293T (replicate number 2), -0.42; with U2OS (replicate number 1), -0.52; in the data set on U2OS (replicate number 2) it was -0.15.
As to `O=C(NCC(=O)N1CCCCC1)Nc1ccc2nnsc2c1`, the “Growth Rate” value is listed as 0.36 with Fibroblast (replicate number 1); -0.42 with Fibroblast (replicate number 2); 0.75 in the data set on HEK-293T (replicate number 1); 0.97 in the data set with HEK-293T (replicate number 2); 0.93 in the data set with U2OS (replicate number 1).
For the molecule `Nc1ccccc1NC(=O)CCCCCC(=O)Nc1ccccc1`, the “Growth Rate” value with Fibroblast (replicate number 1) is given as 1; with Fibroblast (replicate number 2) it was -0.07; in the data set on HEK-293T (replicate number 1) it was 1; with U2OS (replicate number 1), 0.46; with U2OS (replicate number 2), 1.
As for `Cc1ccc(NC2=CC(=O)c3sc(C)nc3C2=O)cc1`, the “Growth Rate” value in the data set with Fibroblast (replicate number 1) is recorded as -0.84; in the data set on Fibroblast (replicate number 2) it was -0.96; with HEK-293T (replicate number 1) it was -0.37; in the data set with HEK-293T (replicate number 2) it was -0.23; with U2OS (replicate number 1), -0.86; in the data set on U2OS (replicate number 2) it was -0.45.
For `CCOC(=O)NCCCC(=O)NCCc1ccccc1`, the “Growth Rate” value with Fibroblast (replicate number 1) is reported as 1; with HEK-293T (replicate number 1), 0.61; with HEK-293T (replicate number 2), 0.8; in the data set with U2OS (replicate number 1), 0.48; with U2OS (replicate number 2), 0.84.
For the molecule `CC1=NN(c2ccc(C(=O)O)cc2)C(=O)/C1=C/c1ccc(-c2cc(C)c(C)cc2[N+](=O)[O-])o1`, the “Growth Rate” value in the data set with Fibroblast (replicate number 1) stood at 1; with HEK-293T (replicate number 1) it was 0.84; with HEK-293T (replicate number 2), 1; in the data set on U2OS (replicate number 1), 0.18; with U2OS (replicate number 2), 1.
On to `COC(=O)C[C@@H]1N=C(c2ccc(Cl)cc2)c2c(sc(C)c2C)-n2c(C)nnc21`, for which the “Growth Rate” value is on record as 1 with Fibroblast (replicate number 1); 0.73 in the data set with Fibroblast (replicate number 2); 0.62 in the data set with HEK-293T (replicate number 1); 0.77 in the data set on HEK-293T (replicate number 2); 1 in the data set on U2OS (replicate number 1).
`COc1ccc2nc3[nH]nc(C)c3c(NCCOCCO)c2c1`: the “Growth Rate” value is 0.52 with Fibroblast (replicate number 1); 0.43 in the data set on Fibroblast (replicate number 2); 0.57 in the data set with HEK-293T (replicate number 1); 0.77 with HEK-293T (replicate number 2); 0.89 with U2OS (replicate number 1); 1 in the data set on U2OS (replicate number 2).
For the molecule `CCC(CC)(NC(=O)C(C)C)C(=O)N[C@@H](CCCNC(=N)N)C(=O)NC1(C(=O)NC(c2ccc(F)cc2)c2ccc(F)cc2)CCCC1`, the “Growth Rate” value in the data set with Fibroblast (replicate number 1) was 0.56; in the data set with Fibroblast (replicate number 2), -0.56; with HEK-293T (replicate number 1), 0.95; with HEK-293T (replicate number 2) it was 1; in the data set on U2OS (replicate number 1), 1; with U2OS (replicate number 2), 0.97.
Take `COc1ccc(/C=C/C(=O)NO)c(-c2ccc(-c3ccccc3)cc2)c1`: the “Growth Rate” value is recorded as -0.1 in the data set with Fibroblast (replicate number 1); -0.52 in the data set with Fibroblast (replicate number 2); 0.41 in the data set on HEK-293T (replicate number 1); 0.49 with HEK-293T (replicate number 2); -0.07 with U2OS (replicate number 1); 1 with U2OS (replicate number 2).
Turning to `COc1cc2c(NC3CCN(C)CC3)cc(-c3ccc(C)o3)nc2cc1OCCCN1CCCC1`, the “Growth Rate” value in the data set with Fibroblast (replicate number 1) is on record as 0.13; in the data set with Fibroblast (replicate number 2), -0.42; in the data set on HEK-293T (replicate number 1), -0.35; in the data set with HEK-293T (replicate number 2), -0.25; in the data set with U2OS (replicate number 1), -0.74; in the data set with U2OS (replicate number 2), -0.55.
Consider `CC(=O)Nc1ccc(C(=O)Nc2ccc(F)cc2N)cc1`, for which the “Growth Rate” value in the data set with Fibroblast (replicate number 1) is 1; in the data set with HEK-293T (replicate number 1) it was 0.67; in the data set on HEK-293T (replicate number 2), 1; with U2OS (replicate number 1), 1.
On to `COc1nc(Nc2cc(S(C)(=O)=O)ccc2N[C@@H](c2cccc3c2OC(F)(F)O3)c2ncccc2Cl)nc(N2CCNCC2)n1`, for which the “Growth Rate” value in the data set on Fibroblast (replicate number 1) is -0.22; with Fibroblast (replicate number 2), -0.7; with HEK-293T (replicate number 1) it was -0.57; in the data set on HEK-293T (replicate number 2) it was -0.39; in the data set with U2OS (replicate number 1), -0.91; in the data set on U2OS (replicate number 2), -0.02.
Regarding `CC(C)(CNC(=O)c1cccc(-c2noc(C(F)(F)F)n2)c1)c1coc(-c2ccccc2)n1`, the “Growth Rate” value in the data set on Fibroblast (replicate number 1) was determined as 0.48; with Fibroblast (replicate number 2), 0.8; in the data set on HEK-293T (replicate number 1), 0.69; with HEK-293T (replicate number 2), 0.79; in the data set with U2OS (replicate number 1), 1.
In the case of `Cc1ncccc1-c1cnc(NCc2c(F)ccc3c2CCO3)n2cnnc12`, the “Growth Rate” value is on record as 0.59 in the data set with Fibroblast (replicate number 1); 0.1 in the data set on Fibroblast (replicate number 2); 0.64 in the data set on HEK-293T (replicate number 1); 1 in the data set with HEK-293T (replicate number 2); 1 with U2OS (replicate number 1); 0.88 in the data set on U2OS (replicate number 2).
For `CC(C)(C)OC(=O)Nc1ccc(-c2cc(C(=O)NCCCCCCC(=O)NO)no2)cc1`, the “Growth Rate” value with Fibroblast (replicate number 1) is listed as 1; in the data set with Fibroblast (replicate number 2), -0.09; in the data set with HEK-293T (replicate number 1) it was 0.72; in the data set with HEK-293T (replicate number 2) it was 0.67; with U2OS (replicate number 1), 0.28; in the data set on U2OS (replicate number 2), 0.63.
For `CN(C)Cc1ccc(S(=O)(=O)n2ccc(/C=C/C(=O)NO)c2)cc1.Cl`, the “Growth Rate” value is 0.79 with Fibroblast (replicate number 1); -0.05 in the data set with Fibroblast (replicate number 2); 0.53 with HEK-293T (replicate number 1); 0.75 in the data set with HEK-293T (replicate number 2); 0.51 with U2OS (replicate number 1); -0.17 in the data set with U2OS (replicate number 2).
Consider `Cl.Cl.Nc1ncnc2c1ncn2[C@@H]1O[C@H](C(=O)N2CCN(CC(=O)Nc3cccc4c3CNC4=O)CC2)[C@@H](O)[C@H]1O`, for which the “Growth Rate” value with Fibroblast (replicate number 1) is reported as 1; with HEK-293T (replicate number 1) it was 0.67; in the data set with HEK-293T (replicate number 2), 1; with U2OS (replicate number 1), 1; in the data set on U2OS (replicate number 2), 0.84.
As to `CCN(CCN(C)C)C(=O)CNCc1cc(C(N)=O)ccn1.Cl.O`, the “Growth Rate” value worked out at 0.65 with Fibroblast (replicate number 1); 0.4 in the data set with Fibroblast (replicate number 2); 0.74 in the data set on HEK-293T (replicate number 1); 0.94 in the data set with HEK-293T (replicate number 2); 0.89 with U2OS (replicate number 1); 0.8 in the data set with U2OS (replicate number 2).
As for `Br.N#Cc1ccc(-c2csc(NN=C3CCCC3)n2)cc1`, the “Growth Rate” value in the data set on Fibroblast (replicate number 1) is 0.31; in the data set on Fibroblast (replicate number 2) it was 0.62; with HEK-293T (replicate number 1) it was -0.06; with HEK-293T (replicate number 2) it was 0.21; with U2OS (replicate number 1), 0.63; in the data set on U2OS (replicate number 2), 1.
With `CNCCN(C)Cc1cn[nH]c1-c1ccc(OC2CC(OCCC3CCOCC3)C2)cc1` (stereo unspecified), the “Growth Rate” value in the data set on Fibroblast (replicate number 1) was found to be 0.77; in the data set with Fibroblast (replicate number 2) it was 0.95; in the data set with HEK-293T (replicate number 1), 0.64; with HEK-293T (replicate number 2), 0.82; in the data set with U2OS (replicate number 1) it was 0.23; with U2OS (replicate number 2) it was 1.

The values are drawn from ChEMBL document CHEMBL5724709, “EUbOPEN Chemogenomics Library - IncuCyte” (2024).
